According to patent publication US9169254B2, “Spiroimidazolone derivative” (Chugai Seiyaku Kabushiki Kaisha, priority 2009, dated 2015):

Molecular target: T1, human PTH1 receptor (Homo sapiens, UniProt Q03431)
T1 sequence (Q03431 27-593): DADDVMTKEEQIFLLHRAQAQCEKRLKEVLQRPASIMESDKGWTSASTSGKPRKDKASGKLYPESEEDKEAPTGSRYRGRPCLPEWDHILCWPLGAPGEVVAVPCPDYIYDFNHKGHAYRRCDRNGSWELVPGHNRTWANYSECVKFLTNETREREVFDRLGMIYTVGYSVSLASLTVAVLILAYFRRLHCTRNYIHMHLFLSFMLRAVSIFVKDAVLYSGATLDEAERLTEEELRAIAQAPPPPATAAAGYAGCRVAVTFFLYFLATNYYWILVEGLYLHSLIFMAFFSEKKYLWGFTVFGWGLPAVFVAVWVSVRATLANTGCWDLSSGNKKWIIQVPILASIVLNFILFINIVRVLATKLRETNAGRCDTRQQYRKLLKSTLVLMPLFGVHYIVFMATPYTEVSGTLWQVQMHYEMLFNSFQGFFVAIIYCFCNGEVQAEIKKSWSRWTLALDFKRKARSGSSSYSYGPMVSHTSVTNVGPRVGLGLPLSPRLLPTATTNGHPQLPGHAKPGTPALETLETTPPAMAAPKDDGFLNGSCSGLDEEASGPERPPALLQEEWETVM
Test: In vitro cAMP signal activity in HKRK-B7 cells (LLC-PK1 cells overexpressing the human PTH1 receptor)
Type: cell-based
Conditions: HKRK-B7 cells; compound at 1×10^−3 M; cAMP produced as percentage of that produced by hPTH(1-34) at 100 nM

| SMILES | cAMP production activity (%) |
| --- | --- |
| CNc1cc(C)c(/C=C/S(=O)(=O)N2CCC3(CC2)N=C(c2cccc(SC(F)(F)F)c2)NC3=O)c(C)c1 [Compound 1016, 8-[(E)-2-(2,6-Dimethyl-4-methylamino-phenyl)-ethenesulfonyl]-2-(3-trifluoromethylsulfanyl-phenyl)-1,3,8-triaza-spiro[4.5]dec-1-en-4-one] | 92% |
| Cc1cc(C(=O)N2CCCC2)ccc1/C=C/S(=O)(=O)N1CCC2(CC1)N=C(c1ccc(F)c(C(F)(F)F)c1)NC2=O [Compound 619, 2-(4-Fluoro-3-trifluoromethyl-phenyl)-8-{(E)-2-[2-methyl-4-(pyrrolidine-1-carbonyl)-phenyl]-ethenesulfonyl}-1,3,8-triaza-spiro[4.5]dec-1-en-4-one] | 61% |
| CC1CCCCC1C1=NC2(CCN(S(=O)(=O)c3cccc(Cl)c3)CC2)C(=O)N1 (stereo not drawn) [Compound 20, 8-(3-chloro-benzenesulfonyl)-2-(2-methyl-cyclohexyl)-1,3,8-triaza-spiro[4.5]dec-1-en-4-one] | 38% |
| Cc1cc(C(=O)N2CCC(C)(O)CC2)cc(C)c1/C=C/[S@TB4](=O)(=O)N1CCC2(CC1)N=C(c1cccc(CC(F)(F)F)c1)NC2=O [Compound 1097, 8-{(E)-2-[4-(4-hydroxy-4-methyl-piperidine-1-carbonyl)-2,6-dimethyl-phenyl]-ethenesulfonyl}-2-[3-(2,2,2-trifluoro-ethyl)-phenyl]-1,3,8-triaza-spiro[4.5]dec-1-en-4-one] | 90% |
| CCCc1cc2ccc(C3=NC4(CCN(S(=O)(=O)CCc5c(C)cc(N(C)C(N)=O)cc5C)CC4)C(=O)N3)cc2o1 [Compound 1355, 1-(3,5-dimethyl-4-{2-[4-oxo-2-(2-propyl-benzofuran-6-yl)-1,3,8-triaza-spiro[4.5]dec-1-ene-8-sulfonyl]-ethyl}-phenyl)-1-methyl-urea] | 118% |
| Cc1cc2ccc1CCS(=O)(=O)N1CCC3(CC1)N=C(NC3=O)c1cc(cc(C(F)(F)F)c1)OCCCCCOCCN(CCO)C2=O [Compound 1429] | 8.9% |
| O=C1NC(c2cccc(OC(F)(F)F)c2)=NC12CCN(S(=O)(=O)CCc1ccccc1C(F)(F)F)CC2 [Compound 304, 2-(3-trifluoromethoxy-phenyl)-8-[2-(2-trifluoromethyl-phenyl)-ethanesulfonyl]-1,3,8-triaza-spiro[4.5]dec-1-en-4-one] | 47% |
| Cc1cc(N(C)C(N)=O)cc(C)c1CC(F)(F)S(=O)(=O)N1CCC2(CC1)N=C(c1cccc(OC(F)(F)F)c1)NC2=O [Compound 1085, 1-(4-{2,2-Difluoro-2-[4-oxo-2-(3-trifluoromethoxy-phenyl)-1,3,8-triaza-spiro[4.5]dec-1-ene-8-sulfonyl]-ethyl}-3,5-dimethyl-phenyl)-1-methyl-urea] | 100% |
| Cc1cc2ccc1CCS(=O)(=O)N1CCC3(CC1)N=C(NC3=O)c1cc(cc(C(F)(F)F)c1)OCCOCCNC(=O)CN(C)C2=O [Compound 1440] | 10% |
| Cc1cc(CNC(=O)OC(C)(C)C)ccc1CCS(=O)(=O)N1CCC2(CC1)N=C(c1ccc(F)c(C(F)(F)F)c1)NC2=O [Compound 164, (4-{2-[2-(4-fluoro-3-trifluoromethyl-phenyl)-4-oxo-1,3,8-triaza-spiro[4.5]dec-1-ene-8-sulfonyl]-ethyl}-3-methyl-benzyl)-carbamic acid tert-butyl ester] | 45% |
| CN(C)C(=O)NCCc1ccc(/C=C/S(=O)(=O)N2CCC3(CC2)N=C(C2CCCCC2)NC3=O)cc1 [Compound 490, 3-(2-{4-[(E)-2-(2-cyclohexyl-4-oxo-1,3,8-triaza-spiro[4.5]dec-1-ene-8-sulfonyl)-vinyl]-phenyl}-ethyl)-1,1-dimethyl-urea] | 26% |
| O=C1NC(C2CCCCC2)=NC12CCN(S(=O)(=O)CCc1ccccc1C(F)(F)F)CC2 [Compound 323, 2-Cyclohexyl-8-[2-(2-trifluoromethyl-phenyl)-ethanesulfonyl]-1,3,8-triaza-spiro[4.5]dec-1-en-4-one] | 53% |
